Assay results reported in ChEMBL document CHEMBL1909046, “DrugMatrix in vitro pharmacology data”.

Legend:
Cytochrome P450 3A4 = Cytochrome P450 3A4 (Homo sapiens, UniProt P08684); note: in other assays of this panel Not Active means under 50% inhibition at 10 µM
Melanocortin receptor 5 = Melanocortin receptor 5 (Homo sapiens, UniProt P33032); format: cell membranes, HEK293, Membrane; conditions: hek293; note: in other assays of this panel Not Active means under 50% inhibition at 10 µM
Androgen receptor [1] = target: T1, Androgen receptor (Rattus norvegicus, UniProt P15207); note: in other assays of this panel Not Active means under 50% inhibition at 10 µM
T1 sequence (P15207 whole entry): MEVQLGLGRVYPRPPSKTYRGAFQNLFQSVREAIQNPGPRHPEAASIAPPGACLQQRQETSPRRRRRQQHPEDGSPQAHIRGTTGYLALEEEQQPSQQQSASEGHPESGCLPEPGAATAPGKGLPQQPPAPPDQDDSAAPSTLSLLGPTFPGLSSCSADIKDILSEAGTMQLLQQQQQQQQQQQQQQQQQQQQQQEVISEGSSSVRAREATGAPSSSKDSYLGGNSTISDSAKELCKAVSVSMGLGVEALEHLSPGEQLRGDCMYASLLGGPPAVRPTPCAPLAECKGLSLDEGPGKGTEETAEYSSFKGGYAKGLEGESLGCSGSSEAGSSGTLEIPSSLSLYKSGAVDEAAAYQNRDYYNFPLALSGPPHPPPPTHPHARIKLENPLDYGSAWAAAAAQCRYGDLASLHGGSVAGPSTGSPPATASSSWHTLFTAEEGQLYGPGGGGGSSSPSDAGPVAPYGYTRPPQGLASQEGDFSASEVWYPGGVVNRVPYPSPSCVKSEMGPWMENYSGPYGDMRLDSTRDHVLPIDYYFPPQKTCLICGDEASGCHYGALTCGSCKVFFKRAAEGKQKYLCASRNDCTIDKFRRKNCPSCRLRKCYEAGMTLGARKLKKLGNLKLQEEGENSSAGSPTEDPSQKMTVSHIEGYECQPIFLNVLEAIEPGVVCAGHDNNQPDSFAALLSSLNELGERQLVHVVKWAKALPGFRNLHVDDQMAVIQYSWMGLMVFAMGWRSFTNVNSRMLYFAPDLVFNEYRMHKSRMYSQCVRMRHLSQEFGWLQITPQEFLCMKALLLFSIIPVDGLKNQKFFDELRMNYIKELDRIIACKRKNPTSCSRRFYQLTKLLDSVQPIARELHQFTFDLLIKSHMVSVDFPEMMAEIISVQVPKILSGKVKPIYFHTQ

[2] = DRUGMATRIX: Calcium Channel Type L, Phenylalkylamine radioligand binding (ligand: [3H] (-)-Desmethoxyverapamil (D-888)); format: cell membranes, Rattus norvegicus, Wistar, Brain, Membrane; conditions: Not Active = under 50% inhibition at 10 µM
Cytochrome P450 2C9 = Cytochrome P450 2C9 (Homo sapiens, UniProt P11712); note: in other assays of this panel Not Active means under 50% inhibition at 10 µM
Chain of Cytochrome P450 2C9 (P11712 whole entry): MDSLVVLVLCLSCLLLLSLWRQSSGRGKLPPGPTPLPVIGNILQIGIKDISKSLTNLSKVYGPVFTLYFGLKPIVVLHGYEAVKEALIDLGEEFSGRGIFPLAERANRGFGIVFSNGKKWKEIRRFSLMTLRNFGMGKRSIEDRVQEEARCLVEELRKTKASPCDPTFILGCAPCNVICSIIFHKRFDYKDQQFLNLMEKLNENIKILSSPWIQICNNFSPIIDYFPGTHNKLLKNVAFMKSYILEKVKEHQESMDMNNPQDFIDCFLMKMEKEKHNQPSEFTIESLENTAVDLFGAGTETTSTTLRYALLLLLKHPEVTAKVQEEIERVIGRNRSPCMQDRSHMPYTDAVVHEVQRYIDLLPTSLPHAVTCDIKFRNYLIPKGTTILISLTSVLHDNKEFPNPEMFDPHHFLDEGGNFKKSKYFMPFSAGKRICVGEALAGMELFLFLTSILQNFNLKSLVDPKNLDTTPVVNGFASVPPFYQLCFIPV

Androgen receptor [3] = target: T1, Androgen receptor; remark: listed apart in the source
Cytochrome P450 2C19 = Cytochrome P450 2C19 (Homo sapiens, UniProt P33261); note: in other assays of this panel Not Active means under 50% inhibition at 10 µM
Chain of Cytochrome P450 2C19 (P33261 whole entry): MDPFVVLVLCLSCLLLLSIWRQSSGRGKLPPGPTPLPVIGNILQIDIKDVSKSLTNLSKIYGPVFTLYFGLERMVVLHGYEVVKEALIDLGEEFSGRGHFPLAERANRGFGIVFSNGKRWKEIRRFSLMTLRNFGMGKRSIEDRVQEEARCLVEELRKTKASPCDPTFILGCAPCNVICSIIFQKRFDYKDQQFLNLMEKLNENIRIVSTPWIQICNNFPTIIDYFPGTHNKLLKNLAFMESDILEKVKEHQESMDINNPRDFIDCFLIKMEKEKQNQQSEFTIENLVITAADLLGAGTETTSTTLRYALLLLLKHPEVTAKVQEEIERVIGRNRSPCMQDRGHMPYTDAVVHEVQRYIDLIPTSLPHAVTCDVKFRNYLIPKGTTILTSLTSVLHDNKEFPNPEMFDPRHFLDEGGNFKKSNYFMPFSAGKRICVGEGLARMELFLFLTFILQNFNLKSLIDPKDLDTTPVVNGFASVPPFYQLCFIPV

Chain of Melanocortin receptor 5 (P33032 whole entry): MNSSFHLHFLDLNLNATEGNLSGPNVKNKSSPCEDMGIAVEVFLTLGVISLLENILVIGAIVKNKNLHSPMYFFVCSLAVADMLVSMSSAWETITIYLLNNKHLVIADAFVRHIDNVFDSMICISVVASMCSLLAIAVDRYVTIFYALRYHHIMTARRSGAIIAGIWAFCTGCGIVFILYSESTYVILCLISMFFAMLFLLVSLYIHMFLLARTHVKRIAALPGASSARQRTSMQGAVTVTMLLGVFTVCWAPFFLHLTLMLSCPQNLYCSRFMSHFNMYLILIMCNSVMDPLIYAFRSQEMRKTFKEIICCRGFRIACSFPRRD
Chain of Cytochrome P450 3A4 (P08684 whole entry): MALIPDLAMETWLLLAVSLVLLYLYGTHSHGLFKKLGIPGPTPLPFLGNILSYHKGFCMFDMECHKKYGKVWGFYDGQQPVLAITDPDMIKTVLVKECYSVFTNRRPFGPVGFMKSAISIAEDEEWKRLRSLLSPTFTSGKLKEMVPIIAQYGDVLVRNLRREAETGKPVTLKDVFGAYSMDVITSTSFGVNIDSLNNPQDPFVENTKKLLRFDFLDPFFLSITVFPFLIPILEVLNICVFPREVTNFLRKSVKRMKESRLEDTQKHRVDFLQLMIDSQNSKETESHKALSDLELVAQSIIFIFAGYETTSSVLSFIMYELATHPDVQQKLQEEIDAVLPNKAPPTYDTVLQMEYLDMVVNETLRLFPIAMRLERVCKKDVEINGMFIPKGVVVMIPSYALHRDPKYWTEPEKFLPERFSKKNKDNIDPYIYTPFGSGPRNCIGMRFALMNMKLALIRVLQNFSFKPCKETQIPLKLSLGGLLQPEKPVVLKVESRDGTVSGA

CC(C)[C@H]1C(=O)N2CCC[C@H]2[C@]2(O)O[C@](NC(=O)[C@@H]3C=C4c5cccc6[nH]cc(c56)C[C@H]4N(C)C3)(C(C)C)C(=O)N12 [ERGOCORNINE]
IC50 (Cytochrome P450 3A4): 0.5 µM | IC50 (Melanocortin receptor 5): Not Active | IC50 (Androgen receptor [1]): Not Active | IC50 [2]: Not Active | Ki [2]: Not Active

CCCCc1nc(Cl)c(CO)n1Cc1ccc(-c2ccccc2-c2nnn[nH]2)cc1 [LOSARTAN]
IC50 (Cytochrome P450 2C9): 2.88 µM | IC50 (Melanocortin receptor 5): Not Active | IC50 [2]: Not Active | Ki [2]: Not Active

Cc1cc(C(C#N)c2ccc(Cl)cc2)c(Cl)cc1NC(=O)c1cc(I)cc(I)c1O (stereo not drawn) [CLOSANTEL]
IC50 (Cytochrome P450 2C9): 2 µM | IC50 (Melanocortin receptor 5): Not Active | IC50 [2]: Not Active | Ki [2]: Not Active

C[C@]12CC[C@@H]3c4ccc(O)cc4CC[C@H]3[C@@H]1CCC2=O [ESTRONE]
IC50 (Androgen receptor [3]): 11.6 µM | Ki (Androgen receptor [3]): 7.74 µM | IC50 (Melanocortin receptor 5): Not Active | IC50 [2]: Not Active | Ki [2]: Not Active

CC(C)[C@@]1(NC(=O)[C@@H]2C[C@@H]3c4cccc5[nH]cc(c45)C[C@H]3N(C)C2)O[C@@]2(O)[C@@H]3CCCN3C(=O)[C@H](Cc3ccccc3)N2C1=O.CS(=O)(=O)O [DIHYDROERGOCRISTINE MESYLATE]
IC50 (Cytochrome P450 2C19): 3 µM | IC50 (Cytochrome P450 2C9): 3 µM | IC50 (Melanocortin receptor 5): Not Active | IC50 [2]: Not Active | Ki [2]: Not Active
